Data from BindingDB's records for doi:10.1016/j.jmb.2004.09.032 (Celera, 2004).
Values joined by “and” are separate entries in the source; they are usually repeats but may differ in a detail not shown here. Identical values can stand only once.

Columns and labels:
Test in all cases: Enzyme Assay and Determination of the Inhibition Constants
Serine protease 1 = Serine protease 1 (Homo sapiens, UniProt P07477); conditions: pH 7.4; 22 °C
Experimental: (§1) Each enzyme was assayed with a set of different concentrations of each inhibitor. […] Ki(apparent) values were calculated from enzyme velocity curves using the software package BatchKi (BioKin Ltd, Madison, WI). These apparent inhibition constants were then converted to Ki values by assuming competitive inhibition and using the formula Ki = Ki(apparent)/(1 + S/Km).

Prothrombin = Prothrombin (Homo sapiens, UniProt P00734)
Experimental: as §1

[1] = molecular target: T1, Urokinase-type plasminogen activator [179-431,I214M,N322A,S371A] (Homo sapiens, UniProt P00749, I214M/N322A/S371A)
T1 construct: 179-431
Experimental: as §1

Plasminogen = Plasminogen (Homo sapiens, UniProt P00747); conditions: pH 7.4; 22 °C
Plasminogen, sequence (P00747 97-580 limits assumed): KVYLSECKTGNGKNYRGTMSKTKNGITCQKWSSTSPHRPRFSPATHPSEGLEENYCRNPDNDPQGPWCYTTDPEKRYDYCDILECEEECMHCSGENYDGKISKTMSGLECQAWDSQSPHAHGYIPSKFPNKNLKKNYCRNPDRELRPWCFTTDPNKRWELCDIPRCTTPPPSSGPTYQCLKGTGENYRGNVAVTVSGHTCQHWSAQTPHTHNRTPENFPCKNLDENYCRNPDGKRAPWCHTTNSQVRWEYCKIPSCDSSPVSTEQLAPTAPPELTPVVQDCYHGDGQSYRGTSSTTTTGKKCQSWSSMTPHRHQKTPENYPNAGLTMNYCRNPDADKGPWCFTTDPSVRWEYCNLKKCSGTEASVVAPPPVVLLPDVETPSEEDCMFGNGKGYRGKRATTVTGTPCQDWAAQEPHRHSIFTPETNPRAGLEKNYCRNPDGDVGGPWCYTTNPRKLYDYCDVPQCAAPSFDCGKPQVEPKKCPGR
Plasminogen, sequence (P00747 581-810 limits assumed): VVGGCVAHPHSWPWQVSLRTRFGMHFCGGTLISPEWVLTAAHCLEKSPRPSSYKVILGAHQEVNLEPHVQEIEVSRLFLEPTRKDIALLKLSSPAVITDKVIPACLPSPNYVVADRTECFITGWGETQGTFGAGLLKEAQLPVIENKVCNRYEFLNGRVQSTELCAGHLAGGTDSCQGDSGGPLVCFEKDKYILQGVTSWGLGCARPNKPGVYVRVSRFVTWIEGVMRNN
Experimental: as §1

[2] = molecular target: Urokinase-type plasminogen activator (Homo sapiens, UniProt P00749)
Experimental: as §1

Coagulation factor X = Coagulation factor X (Homo sapiens, UniProt P00742)
Coagulation factor X, sequence (P00742 41-179 limits assumed): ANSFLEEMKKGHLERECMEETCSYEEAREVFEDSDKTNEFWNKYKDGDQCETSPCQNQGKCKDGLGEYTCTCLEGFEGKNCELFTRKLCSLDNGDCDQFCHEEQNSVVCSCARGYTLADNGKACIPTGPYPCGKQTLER
Coagulation factor X, sequence (P00742 235-488 limits assumed): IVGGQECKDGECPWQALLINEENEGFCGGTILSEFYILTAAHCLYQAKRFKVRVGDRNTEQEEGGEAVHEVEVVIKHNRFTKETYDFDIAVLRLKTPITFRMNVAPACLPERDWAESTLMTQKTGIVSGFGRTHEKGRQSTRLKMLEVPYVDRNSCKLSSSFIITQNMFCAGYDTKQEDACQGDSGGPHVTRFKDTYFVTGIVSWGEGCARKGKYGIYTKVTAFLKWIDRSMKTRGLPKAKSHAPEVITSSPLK
Experimental: as §1

[3] = molecular target: Tissue-type plasminogen activator (Homo sapiens, UniProt P00750)
Tissue-type plasminogen activator, sequence (P00750 whole entry): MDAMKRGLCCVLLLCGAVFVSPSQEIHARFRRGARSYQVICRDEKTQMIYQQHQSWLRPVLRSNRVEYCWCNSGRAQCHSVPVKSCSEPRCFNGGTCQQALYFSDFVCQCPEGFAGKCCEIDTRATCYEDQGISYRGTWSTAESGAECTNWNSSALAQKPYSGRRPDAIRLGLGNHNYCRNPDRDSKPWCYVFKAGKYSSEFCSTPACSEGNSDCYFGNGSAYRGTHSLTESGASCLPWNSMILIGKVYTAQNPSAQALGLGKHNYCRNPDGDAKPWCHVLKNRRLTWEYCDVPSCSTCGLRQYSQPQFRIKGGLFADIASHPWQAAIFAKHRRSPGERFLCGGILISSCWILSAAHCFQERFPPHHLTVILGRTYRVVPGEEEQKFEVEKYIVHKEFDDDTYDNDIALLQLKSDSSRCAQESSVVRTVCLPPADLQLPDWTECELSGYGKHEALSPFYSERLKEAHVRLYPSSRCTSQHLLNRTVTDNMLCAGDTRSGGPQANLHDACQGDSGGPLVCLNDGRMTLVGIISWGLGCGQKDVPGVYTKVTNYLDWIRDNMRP
Experimental: as §1

Serine protease hepsin = Serine protease hepsin (Homo sapiens, UniProt P05981)
Serine protease hepsin, sequence (P05981 1-162 limits assumed): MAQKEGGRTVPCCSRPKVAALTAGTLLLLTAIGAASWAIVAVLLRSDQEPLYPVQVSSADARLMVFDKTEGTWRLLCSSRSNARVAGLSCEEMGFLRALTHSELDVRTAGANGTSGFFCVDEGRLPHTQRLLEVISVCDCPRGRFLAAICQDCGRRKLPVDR
Serine protease hepsin, sequence (P05981 163-417 limits assumed): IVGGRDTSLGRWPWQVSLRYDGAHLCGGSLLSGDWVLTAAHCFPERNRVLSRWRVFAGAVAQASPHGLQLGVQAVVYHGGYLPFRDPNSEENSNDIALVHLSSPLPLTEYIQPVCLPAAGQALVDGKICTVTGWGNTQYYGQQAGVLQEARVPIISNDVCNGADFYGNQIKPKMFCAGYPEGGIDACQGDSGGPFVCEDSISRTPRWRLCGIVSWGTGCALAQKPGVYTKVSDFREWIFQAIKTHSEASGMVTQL
Experimental: as §1

Tryptase beta-2 = Tryptase beta-2 (Homo sapiens, UniProt P20231)
Tryptase beta-2, sequence (P20231 as listed by the source): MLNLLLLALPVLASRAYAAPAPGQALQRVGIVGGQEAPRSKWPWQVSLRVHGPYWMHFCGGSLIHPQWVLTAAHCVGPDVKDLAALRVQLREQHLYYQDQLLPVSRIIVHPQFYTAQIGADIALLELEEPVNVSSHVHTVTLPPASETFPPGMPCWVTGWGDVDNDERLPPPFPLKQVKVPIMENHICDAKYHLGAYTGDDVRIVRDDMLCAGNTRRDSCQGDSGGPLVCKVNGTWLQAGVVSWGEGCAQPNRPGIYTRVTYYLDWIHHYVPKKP
Experimental: as §1

Serine protease 1, sequence (P07477 whole entry): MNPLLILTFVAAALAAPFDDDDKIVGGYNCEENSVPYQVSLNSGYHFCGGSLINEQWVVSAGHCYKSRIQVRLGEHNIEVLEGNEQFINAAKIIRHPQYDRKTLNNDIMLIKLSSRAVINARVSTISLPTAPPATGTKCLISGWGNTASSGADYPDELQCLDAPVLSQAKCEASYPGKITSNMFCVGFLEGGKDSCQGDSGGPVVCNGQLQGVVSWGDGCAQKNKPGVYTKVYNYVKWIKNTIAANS

Question: For `NC(N)=Nc1ccc(NC(=O)c2cc3ccccc3c(O)c2O)cn1` [[amino({5-[(3,4-dihydroxynaphthalene-2-)amido]pyridin-2-yl}amino)methylidene]azanium], which Ki (Serine protease 1) is on record?
Answer: 42 µM

Question: What about the Ki (Prothrombin) of the same molecule?
Answer: > 450 µM

Question: And the Ki [1]?
Answer: 0.28 µM

Question: And the Ki (Plasminogen)?
Answer: 4 µM

Question: And the Ki [2]?
Answer: 17 nM and 41 nM

Question: And the Ki (Coagulation factor X)?
Answer: 80 µM

Question: Which Ki [1] does the source give for `CC(C)COc1cccc(-c2nc3ccc(C(=N)N)cc3[nH]2)c1O` [2-{5-[amino(iminiumyl)methyl]-1H-1,3-benzodiazol-2-yl}-6-(2-methylpropoxy)benzen-1-olate] here?
Answer: 3.9 µM

Question: And the Ki [2]?
Answer: 190 nM

Question: For `Nc1nc2cc(NC(=O)c3cc4ccccc4cc3O)ccc2[nH]1` [2-amino-5-[(3-hydroxynaphthalene-2-)amido]-1H-1,3-benzodiazol-3-ium], which Ki (Serine protease 1) is on record?
Answer: 37 µM

Question: And the Ki (Prothrombin)?
Answer: > 450 µM

Question: And the Ki [1]?
Answer: 42 µM

Question: What about the Ki (Plasminogen) of the same molecule?
Answer: > 75 µM

Question: What about the Ki [2] of the same molecule?
Answer: 4600 nM and 4500 nM

Question: What about the Ki (Coagulation factor X) of the same molecule?
Answer: 200 µM

Question: And the Ki [3]?
Answer: > 450 µM

Question: What about the Ki (Serine protease hepsin) of the same molecule?
Answer: 2100 nM

Question: Which Ki [1] does the source give for `CC(C)COc1cccc(-c2nc3cc(F)c(C(=N)N)cc3[nH]2)c1O` [CA-10] here?
Answer: 23 µM

Question: And the Ki [2]?
Answer: 150 nM

Question: Which Ki (Tryptase beta-2) does the source give for `N=C(N)Nc1ccc(NC(=O)c2cc3ccccc3cc2O)cn1` [[amino({5-[(3-hydroxynaphthalene-2-)amido]pyridin-2-yl}amino)methylidene]azanium] here?
Answer: 870 nM

Question: What about the Ki (Serine protease 1) of the same molecule?
Answer: 9.6 µM

Question: What about the Ki (Prothrombin) of the same molecule?
Answer: 54 µM

Question: And the Ki [1]?
Answer: 1.1 µM

Question: And the Ki (Plasminogen)?
Answer: 130 µM

Question: And the Ki [2]?
Answer: 100 nM and 200 nM

Question: What about the Ki (Coagulation factor X) of the same molecule?
Answer: 70 µM

Question: What about the Ki [3] of the same molecule?
Answer: 180 µM

Question: Which Ki (Tryptase beta-2) does the source give for `N=C(N)c1cc2nc(-c3cccc(-c4ccccc4)c3O)[nH]c2cc1F` [2-{5-[amino(iminiumyl)methyl]-6-fluoro-1H-1,3-benzodiazol-2-yl}-6-phenylbenzen-1-olate] here?
Answer: 4700 nM

Question: What about the Ki (Serine protease 1) of the same molecule?
Answer: 10 µM

Question: What about the Ki [1] of the same molecule?
Answer: 39 µM

Question: And the Ki [2]?
Answer: 370 nM

Question: How did the Ki [2] turn out when `N=C(N)c1ccc2[nH]c(-c3cccc(-c4ccccc4)c3O)cc2c1` [CRA-8696] was run?
Answer: 33 nM

Question: And the Ki (Serine protease hepsin)?
Answer: 85 nM

Question: Which results are given for `NC(N)=Nc1ccc(NC(=O)c2cc3ccccc3cc2O)cc1` [[amino({4-[(3-hydroxynaphthalene-2-)amido]phenyl}amino)methylidene]azanium]?
Answer: Ki (Tryptase beta-2): 2000 nM; Ki (Serine protease 1): 16 µM; Ki (Prothrombin): 290 µM; Ki [1]: 10 µM; Ki (Plasminogen): 130 µM; Ki [2]: 620 nM and 390 nM; Ki (Coagulation factor X): > 450 µM; Ki [3]: 670 µM; Ki (Serine protease hepsin): 2600 nM

Question: For `C[C@H]1CCCC[C@@H]1Oc1cccc(-c2nc3cc(C(=N)N)c(F)cc3[nH]2)c1O` [2-{5-[amino(iminiumyl)methyl]-6-fluoro-1H-1,3-benzodiazol-2-yl}-6-{[(1S,2S)-2-methylcyclohexyl]oxy}benzen-1-olate], which Ki (Tryptase beta-2) is on record?
Answer: 2500 nM

Question: For `N=C(N)c1ccc2nc(-c3cccc(OC4CCCC4)c3O)[nH]c2c1` [CA-06], which Ki [1] is on record?
Answer: 4.4 µM

Question: And the Ki [2]?
Answer: 190 nM

Question: Which results are given for `Nc1nc2cc(NC(=O)c3cccc(-c4ccccc4)c3O)ccc2[nH]1` [2-amino-5-[(2-hydroxy-3-phenylbenzene)amido]-1H-1,3-benzodiazol-3-ium]?
Answer: Ki (Serine protease 1): 130 µM; Ki (Prothrombin): > 450 µM; Ki (Plasminogen): > 75 µM; Ki [2]: 4100 nM; Ki (Coagulation factor X): > 450 µM; Ki [3]: 270 µM; Ki (Serine protease hepsin): > 75000 nM
